Reference: the NIST ThermoML archive (doi:10.1016/j.jct.2007.04.006)
Numbers after ± are expanded uncertainties.

Experiments:
[1] = 101.33 kPa, Liquid; for speed of sound: Sing-around technique in a fixed-path interferometer
[2] = mn = molality of the nth substance listed, in mol/kg; conditions: 101 kPa, Liquid; for speed of sound: Sing-around technique in a fixed-path interferometer

CC(=O)N(C)C [N,N-dimethylethanamide]
[1], 323.15 K
Conditions | mass density [kg/m3] | speed of sound [m/s]
– | 913.129 ± 0.18 | 1357.8 ± 1.3

CC(C)=O [acetone]
[1], 298.15 K
Conditions | mass density [kg/m3] | speed of sound [m/s]
– | 784.233 ± 0.31 | 1161.7 ± 1.3

CC#N [acetonitrile]
[1], 298.15 K
Conditions | mass density [kg/m3] | speed of sound [m/s]
– | 776.6 ± 0.31 | 1279.2 ± 1.3

CCO [ethanol]
[1], 298.15 K
Conditions | mass density [kg/m3] | speed of sound [m/s]
– | 785.125 ± 0.31 | 1143.4 ± 1.2

[Br-].[Li+] [lithium bromide] + CC#N
[2], 298.15 K
Conditions | mass density [kg/m3] | speed of sound [m/s]
m1 = 0.0209 | 778.135 ± 0.32 | 1279.8 ± 1.3
m1 = 0.0302 | 778.802 ± 0.32 | 1280.1 ± 1.3
m1 = 0.0403 | 779.512 ± 0.32 | 1280.4 ± 1.3
m1 = 0.0478 | 780.04 ± 0.31 | 1280.6 ± 1.3
m1 = 0.07 | 781.58 ± 0.31 | 1281.3 ± 1.3
m1 = 0.0799 | 782.247 ± 0.31 | 1281.6 ± 1.3
m1 = 0.0904 | 782.95 ± 0.31 | 1281.9 ± 1.3
m1 = 0.0986 | 783.518 ± 0.31 | 1282.1 ± 1.3
m1 = 0.1212 | 784.97 ± 0.31 | 1282.8 ± 1.3
m1 = 0.1506 | 786.812 ± 0.31 | 1283.7 ± 1.3
m1 = 0.1985 | 789.96 ± 0.3 | 1285 ± 1.3
m1 = 0.2498 | 793.354 ± 0.3 | 1286.4 ± 1.3
m1 = 0.2981 | 796.544 ± 0.3 | 1287.7 ± 1.3
m1 = 0.3974 | 803.094 ± 0.29 | 1290.4 ± 1.3
m1 = 0.5004 | 809.733 ± 0.28 | 1293.1 ± 1.3
m1 = 0.596 | 815.99 ± 0.28 | 1295.6 ± 1.3
m1 = 0.6972 | 822.595 ± 0.27 | 1298.2 ± 1.3

[Br-].[Li+] [lithium bromide] + CC(=O)N(C)C
[2], 323.15 K
Conditions | mass density [kg/m3] | speed of sound [m/s]
m1 = 0.0322 | 915.827 ± 0.19 | 1360.8 ± 1.3
m1 = 0.0511 | 917.401 ± 0.19 | 1362.5 ± 1.3
m1 = 0.0638 | 918.452 ± 0.19 | 1363.6 ± 1.3
m1 = 0.0978 | 921.232 ± 0.19 | 1366.4 ± 1.3
m1 = 0.1188 | 922.89 ± 0.19 | 1368.1 ± 1.3
m1 = 0.1475 | 925.178 ± 0.18 | 1370.3 ± 1.3
m1 = 0.2003 | 929.349 ± 0.18 | 1374.4 ± 1.3
m1 = 0.2472 | 933.065 ± 0.18 | 1378.2 ± 1.3
m1 = 0.3042 | 937.515 ± 0.17 | 1382.1 ± 1.3
m1 = 0.3988 | 944.893 ± 0.17 | 1389.2 ± 1.3
m1 = 0.4886 | 951.867 ± 0.16 | 1395.9 ± 1.3
m1 = 0.601 | 960.362 ± 0.15 | 1403.8 ± 1.3
m1 = 0.7053 | 968.26 ± 0.15 | 1411.4 ± 1.3
m1 = 0.9019 | 982.963 ± 0.14 | 1425.5 ± 1.3
m1 = 1 | 990.219 ± 0.13 | 1432.6 ± 1.3
m1 = 1.189 | 1004.06 ± 0.13 | 1446.1 ± 1.3
m1 = 1.327 | 1013.96 ± 0.13 | 1455.4 ± 1.3

[Br-].[Li+] [lithium bromide] + CC(C)=O
[2], 298.15 K
Conditions | mass density [kg/m3] | speed of sound [m/s]
m1 = 0.0301 | 784.377 ± 0.38 | 1141.5 ± 1.3
m1 = 0.0367 | 785.81 ± 0.32 | 1142.3 ± 1.3
m1 = 0.0486 | 786.228 ± 0.31 | 1142.6 ± 1.3
m1 = 0.0679 | 787.379 ± 0.31 | 1143.1 ± 1.3
m1 = 0.0776 | 787.748 ± 0.34 | 1143.3 ± 1.3
m1 = 0.0873 | 790.137 ± 0.41 | 1144.5 ± 1.3
m1 = 0.099 | 793.601 ± 0.38 | 1146.2 ± 1.3
m1 = 0.1177 | 797.348 ± 0.37 | 1148.1 ± 1.3
m1 = 0.1424 | 803.296 ± 0.38 | 1150.9 ± 1.3
m1 = 0.3719 | 806.427 ± 0.29 | 1152.3 ± 1.3
m1 = 0.4973 | 811.456 ± 0.28 | 1154.5 ± 1.3
m1 = 0.5928 | 818.719 ± 0.28 | 1157.7 ± 1.3
m1 = 0.7044 | 824.988 ± 0.27 | 1160.3 ± 1.3
m1 = 0.8 | 829.74 ± 0.27 | 1162.3 ± 1.3

[Br-].[Li+] [lithium bromide] + CC(C)O
[2], 298.15 K
Conditions | mass density [kg/m3] | speed of sound [m/s]
m1 = 0.0787 | 786.228 ± 0.31 | 1142.6 ± 1.2
m1 = 0.0957 | 787.379 ± 0.31 | 1143.1 ± 1.2
m1 = 0.1024 | 787.748 ± 0.3 | 1143.3 ± 1.2
m1 = 0.1387 | 790.137 ± 0.3 | 1144.5 ± 1.2
m1 = 0.1915 | 793.601 ± 0.3 | 1146.2 ± 1.2
m1 = 0.2503 | 797.348 ± 0.3 | 1148.1 ± 1.2
m1 = 0.3451 | 803.296 ± 0.29 | 1150.9 ± 1.2
m1 = 0.3951 | 806.427 ± 0.29 | 1152.3 ± 1.2
m1 = 0.4768 | 811.456 ± 0.28 | 1154.5 ± 1.3
m1 = 0.594 | 818.719 ± 0.28 | 1157.7 ± 1.2
m1 = 0.697 | 824.988 ± 0.27 | 1160.3 ± 1.2
m1 = 0.7757 | 829.74 ± 0.26 | 1162.3 ± 1.2
m1 = 0.9066 | 837.46 ± 0.26 | 1165.4 ± 1.2
m1 = 1.003 | 843.093 ± 0.25 | 1167.7 ± 1.2
m1 = 1.158 | 851.831 ± 0.24 | 1170.5 ± 1.2
m1 = 1.272 | 858.084 ± 0.24 | 1173.5 ± 1.2

[Br-].[Li+] [lithium bromide] + CCO
[2], 298.15 K
Conditions | mass density [kg/m3] | speed of sound [m/s]
m1 = 0.0789 | 790.432 ± 0.3 | 1147 ± 1.2
m1 = 0.0913 | 791.251 ± 0.3 | 1147.4 ± 1.2
m1 = 0.0985 | 791.782 ± 0.3 | 1147.8 ± 1.2
m1 = 0.1384 | 794.334 ± 0.3 | 1149.2 ± 1.2
m1 = 0.1556 | 795.465 ± 0.3 | 1150.1 ± 1.2
m1 = 0.2019 | 798.467 ± 0.29 | 1151.6 ± 1.2
m1 = 0.2348 | 800.584 ± 0.29 | 1152.6 ± 1.2
m1 = 0.2495 | 801.494 ± 0.29 | 1153.2 ± 1.2
m1 = 0.301 | 804.725 ± 0.29 | 1154.7 ± 1.2
m1 = 0.4002 | 810.966 ± 0.28 | 1157.8 ± 1.2
m1 = 0.4903 | 816.539 ± 0.28 | 1160.5 ± 1.2
m1 = 0.6076 | 823.796 ± 0.27 | 1163.8 ± 1.2
m1 = 0.7038 | 829.747 ± 0.27 | 1166.5 ± 1.2
m1 = 0.8013 | 835.512 ± 0.26 | 1168.9 ± 1.2
m1 = 0.8975 | 841.268 ± 0.25 | 1171.5 ± 1.2
m1 = 1.013 | 848.08 ± 0.25 | 1174.4 ± 1.2
m1 = 1.093 | 852.846 ± 0.24 | 1176.6 ± 1.2
m1 = 1.215 | 860.012 ± 0.23 | 1179.5 ± 1.2

[Br-].[Li+] [lithium bromide] + CO
[2], 298.15 K
Conditions | mass density [kg/m3] | speed of sound [m/s]
m1 = 0.0425 | 789.48 ± 0.3 | 1110.7 ± 1.2
m1 = 0.0588 | 790.553 ± 0.3 | 1111.3 ± 1.2
m1 = 0.0714 | 791.384 ± 0.3 | 1112 ± 1.2
m1 = 0.0903 | 792.602 ± 0.3 | 1112.8 ± 1.2
m1 = 0.1168 | 794.333 ± 0.3 | 1113.9 ± 1.2
m1 = 0.1473 | 796.328 ± 0.3 | 1115.1 ± 1.2
m1 = 0.2089 | 800.289 ± 0.29 | 1117.7 ± 1.2
m1 = 0.2993 | 806.041 ± 0.29 | 1121.1 ± 1.2
m1 = 0.5035 | 818.761 ± 0.28 | 1128.8 ± 1.2
m1 = 0.7097 | 831.385 ± 0.26 | 1136.2 ± 1.2
m1 = 0.9875 | 848.253 ± 0.25 | 1146.1 ± 1.2
m1 = 1.163 | 858.424 ± 0.24 | 1152 ± 1.2
m1 = 1.464 | 876.582 ± 0.22 | 1162.5 ± 1.2
m1 = 1.97 | 905.481 ± 0.19 | 1179.6 ± 1.2
m1 = 2.45 | 933.222 ± 0.17 | 1195.9 ± 1.3
m1 = 3.489 | 989.847 ± 0.12 | 1231.2 ± 1.3

CO [methanol]
[1], 298.15 K
Conditions | mass density [kg/m3] | speed of sound [m/s]
– | 786.71 ± 0.3 | 1108.5 ± 1.2

CC(C)O [propan-2-ol]
[1], 298.15 K
Conditions | mass density [kg/m3] | speed of sound [m/s]
– | 780.804 ± 0.31 | 1139.1 ± 1.2
